Test results taken from patent US9951049B2, “Pyrazole linked benzimidazole conjugates and a process for preparation thereof” (Council of Scientific & Industrial Reseach, priority 2014, dated 2018).
Entries after “also recorded” stand apart in the source; their conditions may differ. Read-outs that look alike come from different tables or passages of the source.

How the values were obtained:
[1] = system: U251; assay: NCI SRB screen, U251; details: Homo sapiens, U-251, 48 h, read-out: GI50 values
[2] = system: UO-31; assay: NCI SRB screen, UO-31; details: Homo sapiens, UO-31, 48 h, read-out: GI50 values
[3] = system: A498; assay: NCI SRB screen, A498; details: Homo sapiens, A498, 48 h, read-out: GI50 values
[4] = system: NCI-H23; assay: NCI SRB screen, NCI-H23; details: Homo sapiens, NCI-H23, 48 h, read-out: GI50 values
[5] = system: RPMI-8226; assay: NCI SRB screen, RPMI-8226; details: Homo sapiens, RPMI-8226, 48 h, read-out: GI50 values
[6] = system: IGROV1; assay: NCI SRB screen, IGROV1; details: Homo sapiens, IGROV-1, 48 h, read-out: GI50 values
[7] = system: CAKI-1; assay: NCI SRB screen, CAKI-1; details: Homo sapiens, CAKI-1, 48 h, read-out: GI50 values
[8] = system: MDA-MB-435; assay: NCI SRB screen, MDA-MB-435 (Breast panel); details: Homo sapiens, MDA-MB-435, 48 h, read-out: GI50 values
[9] = system: SNB-75; assay: NCI SRB screen, SNB-75; details: Homo sapiens, SNB-75, 48 h, read-out: GI50 values
[10] = system: NCI-H460; assay: NCI SRB screen, NCI-H460; details: Homo sapiens, NCI-H460, 48 h, read-out: GI50 values
[11] = system: SF-268; assay: NCI SRB screen, SF-268; details: Homo sapiens, SF-268, 48 h, read-out: GI50 values
[12] = system: SF-539; assay: NCI SRB screen, SF-539; details: Homo sapiens, 48 h, read-out: GI50 values
[13] = system: HT29; assay: NCI SRB screen, HT29; details: Homo sapiens, HT-29, 48 h, read-out: GI50 values
[14] = system: COLO-205; assay: NCI SRB screen, COLO-205; details: Homo sapiens, COLO 205, 48 h, read-out: GI50 values
[15] = system: SK-MEL-28; assay: NCI SRB screen, SK-MEL-28; details: Homo sapiens, SK-MEL-28, 48 h, read-out: GI50 values
[16] = system: UACC-62; assay: NCI SRB screen, UACC-62; details: Homo sapiens, UACC-62, 48 h, read-out: GI50 values
[17] = system: Ovarian cancer cell lines; assay: NCI SRB screen, Ovarian panel average; details: Homo sapiens, 48 h, read-out: Log10 GI50 (converted)
[18] = system: SW-620; assay: NCI SRB screen, SW-620; details: Homo sapiens, SW-620, 48 h, read-out: GI50 values
[19] = system: MOLT-4; assay: NCI SRB screen, MOLT-4; details: Homo sapiens, MOLT-4, 48 h, read-out: GI50 values
[20] = system: KM12; assay: NCI SRB screen, KM12; details: Homo sapiens, KM12, 48 h, read-out: GI50 values
[21] = system: Breast Cancer cell lines; assay: NCI SRB screen, Breast Cancer panel average; details: Homo sapiens, 48 h, read-out: Log10 GI50 (converted)
[22] = system: DU-145; assay: NCI SRB screen, DU-145; details: Homo sapiens, DU-145, 48 h, read-out: GI50 values
[23] = system: OVCAR-8; assay: NCI SRB screen, OVCAR-8; details: Homo sapiens, OVCAR-8, 48 h, read-out: GI50 values
[24] = system: Prostate cancer cell lines; assay: NCI SRB screen, Prostate panel average; details: Homo sapiens, 48 h, read-out: Log10 GI50 (converted)
[25] = system: Leukemia cell lines; assay: NCI SRB screen, Leukemia panel average; details: Homo sapiens, 48 h, read-out: Log10 GI50 (converted)
[26] = system: PC-3; assay: NCI SRB screen, PC-3; details: Homo sapiens, PC-3, 48 h, read-out: GI50 values
[27] = system: UACC-257; assay: NCI SRB screen, UACC-257; details: Homo sapiens, UACC-257, 48 h, read-out: GI50 values
[28] = system: NCIH322M; assay: NCI SRB screen, NCIH322M; details: Homo sapiens, NCI-H322M, 48 h, read-out: GI50 values
[29] = system: HCT-15; assay: NCI SRB screen, HCT-15; details: Homo sapiens, HCT-15, 48 h, read-out: GI50 values
[30] = system: SK-OV-3; assay: NCI SRB screen, SK-OV-3; details: Homo sapiens, SK-OV-3, 48 h, read-out: GI50 values
[31] = system: fifty six human tumor cell lines; assay: NCI human tumor cell line screen (48 h, SRB), all cell lines; details: for GI50: Homo sapiens; for anticancer activity (in words): human cancer cell lines of the NCI panel; for Log10 TGI mean graph midpoint (MG_MID): human tumor cell lines, mean over the panel, total growth inhibition; for potency compared with compounds 6f, 6g, 7g and 10f: against all the cell lines tested
[32] = system: RXF 393; assay: NCI SRB screen, RXF 393; details: Homo sapiens, RXF 393, 48 h, read-out: GI50 values
[33] = read-out: Log10 GI50 mean graph midpoint (MG_MID) (converted)

| Compound | GI50 [1] [nM] | GI50 [2] [nM] | GI50 [3] [nM] | GI50 [4] [nM] | GI50 [5] [nM] | GI50 [6] [nM] | GI50 [7] [nM] | GI50 [8] [nM] | GI50 [9] [nM] | GI50 [10] [nM] | GI50 [11] [nM] | GI50 [12] [nM] | GI50 [13] [nM] | GI50 [14] [nM] | GI50 [15] [nM] | GI50 [16] [nM] | GI50 [17] [nM] | GI50 [18] [nM] | GI50 [19] [nM] | GI50 [20] [nM] | also measured |
| --- | --- | --- | --- | --- | --- | --- | --- | --- | --- | --- | --- | --- | --- | --- | --- | --- | --- | --- | --- | --- | --- |
| COc1cc(-c2cc(-c3nc4ccccc4[nH]3)[nH]n2)cc(OC)c1OC [6f, 2-(3-(3,4,5-trimethoxyphenyl)-1H-pyrazol-5-yl)-1H-benzo[d]imidazole] | 3730 | 2210 | 1510 | 2260 | 1200 | 2340 | 2240 | 930 | 2830 | 3640 | 6430 | 5110 | 7160 | 3980 | 2720 | 1640 | 3240 | 7730 | 2130 | 3150 | GI50 [21]: 2240 nM; GI50 [22]: 3900 nM; GI50 [23]: 2350 nM; GI50 [24]: 2880 nM; GI50 [25]: 2290 nM; GI50 [26]: 2100 nM; GI50 [27]: 2100 nM; GI50 [28]: 2850 nM; GI50 [29]: 3430 nM; GI50 [30]: 3480 nM; GI50 ([31]; read-out: GI50 value range): 340 to 10000 nM; GI50 [31, 33]: 2880 nM; anticancer activity (in words) [31]: significant anticancer activity; also recorded: pronounced activities; Log10 TGI mean graph midpoint (MG_MID) [31]: −4.83; GI50 [32]: 1770 nM |
| c1ccc2[nH]c(-c3cc(-c4ccc5c(c4)OCO5)n[nH]3)nc2c1 [6g, 2-(3-(benzo[d][1,3]dioxol-5-yl)-1H-pyrazol-5-yl)-1H-benzo[d]imidazole] | 2370 | 3980 | 1700 | 4470 | 1140 | 3660 | 2740 | 3570 | 1010 | 4570 | 4770 | 2710 | 3660 | 4780 | 4850 | 3080 | 4370 | 5870 | 2680 | 1750 | GI50 [21]: 3390 nM; GI50 [22]: 7270 nM; GI50 [23]: 3970 nM; GI50 [24]: 5130 nM; GI50 [25]: 2510 nM; GI50 [26]: 3640 nM; GI50 [27]: 6000 nM; GI50 [28]: 6290 nM; GI50 [29]: 3860 nM; GI50 [30]: 4980 nM; GI50 ([31]; read-out: GI50 value range): 340 to 10000 nM; GI50 [31, 33]: 3720 nM; anticancer activity (in words) [31]: significant anticancer activity; also recorded: pronounced activities; Log10 TGI mean graph midpoint (MG_MID) [31]: −4.75; GI50 [32]: 2360 nM |
| Fc1ccc2[nH]c(-c3cc(-c4ccc5c(c4)OCO5)n[nH]3)nc2c1 [7g, 2-(3-(benzo[d][1,3]dioxol-5-yl)-1H-pyrazol-5-yl)-5-fluoro-1H-benzo[d]imidazole] | 2780 | 2930 | 4660 | 8840 | 1090 | 3670 | 2710 | 4140 | 2800 | 6060 | 6050 | 2900 | 5770 | 8110 | 8870 | 4770 | 6170 | 9340 | 3140 | 2960 | GI50 [21]: 3630 nM; GI50 [22]: 8240 nM; GI50 [23]: 3430 nM; GI50 [24]: 5620 nM; GI50 [25]: 2950 nM; GI50 [26]: 3780 nM; GI50 [27]: 1020 nM; GI50 [28]: 6880 nM; GI50 [29]: 3730 nM; GI50 [30]: 1240 nM; GI50 ([31]; read-out: GI50 value range): 340 to 10000 nM; GI50 [31, 33]: 4790 nM; anticancer activity (in words) [31]: significant anticancer activity; also recorded: pronounced activities; Log10 TGI mean graph midpoint (MG_MID) [31]: −4.19; GI50 [32]: 3020 nM |
| COc1cc(-c2cc(-c3nc4cc(Cl)ccc4[nH]3)[nH]n2)cc(OC)c1OC [8f, 5-chloro-2-(3-(3,4,5-trimethoxyphenyl)-1H-pyrazol-5-yl)-1H-benzo[d]imidazole] | 3380 | 2640 | 2100 | 2730 | 1650 | 3420 | 2800 | 2330 | 2710 | 3650 | 3600 | 4660 | 4140 | 3180 | 2420 | 1970 | 3550 | 4990 | 2020 | 3450 | GI50 [21]: 2570 nM; GI50 [22]: 3270 nM; GI50 [23]: 2260 nM; GI50 [24]: 2880 nM; GI50 [25]: 2450 nM; GI50 [26]: 2470 nM; GI50 [27]: 2600 nM; GI50 [28]: 3650 nM; GI50 [29]: 2900 nM; GI50 [30]: 4470 nM; GI50 ([31]; read-out: GI50 value range): 340 to 10000 nM; GI50 [31, 33]: 3020 nM; potency compared with compounds 6f, 6g, 7g and 10f [31]: more potent; anticancer activity (in words) [31]: significant anticancer activity; also recorded: pronounced activities; Log10 TGI mean graph midpoint (MG_MID) [31]: −4.93; mean graph pattern: profile of activity and selectivity ([31]; various cell lines): an interesting profile of activity and selectivity; GI50 [32]: 3260 nM |
| COc1ccc2[nH]c(-c3cc(-c4cc(OC)c(OC)c(OC)c4)n[nH]3)nc2c1 [9f, 5-methoxy-2-(3-(3,4,5-trimethoxyphenyl)-1H-pyrazol-5-yl)-1H-benzo[d]imidazole] | 2900 | 1570 | 2230 | 1340 | 640 | 1900 | 1790 | 380 | 2230 | 2640 | 2740 | 2420 | 2760 | 1610 | 1900 | 1120 | 2040 | 2890 | 730 | 1700 | GI50 [21]: 1150 nM; GI50 [22]: 2290 nM; GI50 [23]: 1150 nM; GI50 [24]: 1550 nM; GI50 [25]: 1260 nM; GI50 [26]: 1030 nM; GI50 [27]: 1670 nM; GI50 [28]: 2470 nM; GI50 [29]: 2500 nM; GI50 [30]: 2830 nM; GI50 ([31]; read-out: GI50 value range): 340 to 10000 nM; GI50 [31, 33]: 1700 nM; potency compared with compounds 6f, 6g, 7g and 10f [31]: more potent; growth inhibitory activity (in words) ([31]; against breast cancer and leukemia cell lines): potential growth inhibitory activity; anticancer activity (in words) [31]: significant anticancer activity; also recorded: pronounced activities; Log10 TGI mean graph midpoint (MG_MID) [31]: −5.17; GI50 [32]: 2490 nM |
